How the values were obtained:
TMD-8 cells = test: TMD-8 cell growth inhibition assay (CCK-8); assay type: cell-based; conditions: Homo sapiens, TMD8, 96 hours
Procedure: The compounds of Examples 9, 98 and 105 of the invention were tested in TMD-8 cell growth inhibition assay. TMD-8 cells (available from Korea Hanmi Research Center) were cultured in RMPI-1640 medium (purchased from Gibco, Cat. No.: 22440) containing 10% fetal bovine serum (purchased from Gibco, Cat. No.: 10099-141). The TMD-8 cells in logarithmic growth phase were seeded in a 96-well plate at 20,000 cells/well/100 μL, and RMPI-1640 medium (100 μL) was added into blank control wells. The test samples were diluted with RMPI-1640 medium to 2 folds of the final concentration (10-fold dilutions starting from 10 μM, setting 6 drug concentrations, and testing in replicate wells at each concentration). The diluted test samples were added to test wells seeded with cells at 100 μL/well, and RMPI-1640 medium (100 μL) was separately added to the positive control wells and the blank control wells. The 96-well plate was placed in the incubator and reacted at 37° C., 5% CO2 for 96 hours. After the reaction was completed, the 96-well plate was taken from the incubator and to each well was added CCK-8 (100 μL) (purchased from DOJINDO, Cat. No.: CK04-11). Then the 96-well plate was put back to the incubator and incubated for another 2 hours. The light absorbance was measured at 450 nm, and the IC50 values were calculated therefrom.

IRAK4 kinase = IRAK4 kinase (Homo sapiens (Human), UniProt Q9NWZ3); test: IRAK4 kinase activity inhibition assay (ADP-Glo); assay type: biochemical; conditions: 10 μM ATP, MBP substrate, 60 min at 25° C.
Procedure: IRAK4 kinase (purchased from Life Technologies, Cat. No.: PR5612U) was diluted to 2 folds of the final concentration (the final concentration is 0.76 ng/μL) with reaction buffer (40 mM Tris-HCl, pH 7.5; 20 mM MgCl2; 0.1 mg/mL BSA; 1 mM DTT), and added to a 384-well plate at 5 μL/well. The test drugs were 10-fold serial diluted from 10 μM to set six concentration points and added to the test wells of the 384-well plate at 2.5 μL/well. After incubation for 10 min at 25° C., 10 μM of ATP and […] of an enzyme reaction substrate, myelin basic protein MBP (purchased from SignalChem, Cat. No.: M42-51N) were added at 2.5 µL/well, and reacted at 25° C. for 60 minutes. After the reaction was completed, the kinase activity assay was performed using the ADP-Glo™ kinase assay kit (purchased from Promega, Cat. No.: V9102) according to the manufacture's instruction, i.e., 10 μL of ADP-Glo reaction reagent was first added and reacted at 25° C. for 40 minutes, 10 μL of the solution to be tested was taken and mixed with 10 μL of ADP-Glo detection reagent, and reacted at 25° C. for 30 minutes. The kinase activity was then detected, and the IC50 values of the test drugs were calculated.

[1] = tested on: TNF-α secretion in THP-1 cells; test: LPS-induced TNF-α secretion assay in THP-1 cells (ELISA); assay type: cell-based; conditions: Homo sapiens; LPS-induced TNF-α secretion in THP-1 cells, 2 hours pre-incubation, 24 hours LPS
Procedure: The compounds of Examples 9, 98 and 105 of the invention were tested in LPS-induced TNF-α secretion assay in THP-1 cells. Human THP-1 cells (purchased from ATCC, Cat. No.: TIB-202) were cultured in RPMI-1640 medium (purchased from Gibco, Cat. No.: 22440) containing 10% fetal bovine serum (purchased from Gibco, Cat. No.: 10099-141) and 0.05 mM of 2-mercaptoethanol (purchased from Gibco, Cat. No.: 21985). The THP-1 cells in logarithmic growth phase were seeded in a 96-well plate at 2×10^5 cells/well/100 μL. The test samples were diluted with RMPI-1640 medium to 4 folds of the final concentration (5-fold dilutions starting from 10 μM, setting 6 drug concentrations, and testing in replicate wells at each concentration). The diluted test samples were added to the test wells seeded with cells at 50 μL/well, and RMPI-1640 medium (50 μL) was separately added to positive control and negative control wells. The 96-well plate was placed in the incubator at 37° C., 5% CO2 and pre-incubated for 2 hours. The 96-well plate was taken out, and 400 ng/mL of LPS (50 μL) (purchased from Sigma, Cat. No.: L6529-1MG) was added to each well of the test wells and the positive control wells, and RMPI-1640 medium (50 μL) was added to the negative control wells. After incubation in the incubator at 37° C., 5% CO2 for 24 hours, the cell culture supernatant was taken and determined for the content of TNF-α in the supernatant using a human TNF-α ELISA kit (purchased from DKW, Cat. No.: 12-1720-096).

IRAK4 kinase, sequence (Q9NWZ3 whole entry): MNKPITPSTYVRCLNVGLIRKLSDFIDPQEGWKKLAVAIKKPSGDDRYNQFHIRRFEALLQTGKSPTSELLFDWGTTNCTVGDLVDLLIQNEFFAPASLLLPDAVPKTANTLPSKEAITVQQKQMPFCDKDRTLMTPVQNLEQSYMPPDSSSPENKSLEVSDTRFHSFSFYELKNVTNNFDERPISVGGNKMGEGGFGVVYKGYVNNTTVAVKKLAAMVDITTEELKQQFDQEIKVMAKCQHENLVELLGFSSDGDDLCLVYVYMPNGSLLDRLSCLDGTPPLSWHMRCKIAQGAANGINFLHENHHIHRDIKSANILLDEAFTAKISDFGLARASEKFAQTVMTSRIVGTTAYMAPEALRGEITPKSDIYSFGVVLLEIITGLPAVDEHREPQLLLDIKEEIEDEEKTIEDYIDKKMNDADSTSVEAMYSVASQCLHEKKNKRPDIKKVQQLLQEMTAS

SMILES	IC50 (TMD-8 cells) [nM]	IC50 (IRAK4 kinase) [nM]	IC50 [1] [nM]
Cc1cc(Nc2nc(N[C@H]3CC[C@](C)(O)CC3)c3sccc3n2)sn1 [Compound 9]	≤ 500	≤ 100	≤ 500
Cc1cc(Nc2nc(N[C@H]3CC[C@H](N4CCCCC4)CC3)c3sccc3n2)sn1 [Compound 98, N^4-(trans-4-(piperidin-1-yl)cyclohexyl)-N^2-(3-methylisothiazol-5-yl)thieno[3,2-d]pyrimidine-2,4-diamine]	≤ 500	≤ 100	≤ 500
Cc1cc(Nc2nc(O[C@H]3CC[C@H](N4CCCC4)CC3)c3sccc3n2)sn1 [Compound 101]		≤ 100	
Cc1cc(Nc2nc(O[C@H]3CC[C@H](N4CCCCC4)CC3)c3sccc3n2)sn1 [Compound 102]		≤ 100	
Cc1cc(Nc2nc(O[C@H]3CC[C@H](N4CCOCC4)CC3)c3sccc3n2)sn1 [Compound 103]		100 to 1000	
Cc1cc(Nc2nc(N[C@H]3CC[C@H](O)CC3)c3c(ccn3C)n2)sn1 [Compound 104, trans-4-((5-methyl-2-((3-methylisothiazol-5-yl)amino)-5H-pyrrolo[3,2-d]pyrimidin-4-yl)amino)cyclohexanol]		≤ 100	
COCCCn1ccc2nc(Nc3cc(C)ns3)nc(N[C@H]3CC[C@H](N4CCCCC4)CC3)c21 [Compound 105, 5-(3-methoxylpropyl)-N^4-(trans-4-(piperidin-1-yl)cyclohexyl)-N^2-(3-methylisothiazol-5-yl)-5H-pyrrolo[3,2-d]pyrimidine-2,4-diamine]	≤ 500	≤ 100	≤ 500
Cc1cc(Nc2nc(N[C@H]3CC[C@](C)(O)CC3)c3c(ccn3Cc3cccnc3)n2)sn1 [Compound 106]		100 to 1000	
Cc1cc(Nc2nc(N[C@H]3CC[C@H](N4CCCCC4)CC3)c3c(ccn3CCCC#N)n2)sn1 [Compound 107]		≤ 100	
Cc1cc(Nc2nc(N[C@H]3CC[C@H](N4CCCCC4)CC3)c3c(ccn3CCC(N)=O)n2)sn1 [Compound 108]		≤ 100	
